# Assay: solvent given as SMILES
compound,measurement,setting,value
C(=C\c1nc(/C=C/c2ccc(-n3c4ccccc4c4ccccc43)cc2)nc(/C=C/c2ccc(-n3c4ccccc4c4ccccc43)cc2)n1)/c1ccc(-n2c3ccccc3c3ccccc32)cc1,emission maximum,in C1CCOC1,500 nm
same,emission maximum,in CC#N,574 nm
same,emission maximum,in Cc1ccccc1,453 nm
same,emission maximum,in ClCCl,526 nm
COc1ccc(C2=[N+]3C(=Nc4c(-c5ccccc5-c5ccc(C(C)(C)C)cc5)cc(-c5ccc(OC)cc5)n4[B-]3(F)F)c3c2c2cc(C(C)(C)C)ccc2c2ccccc32)cc1,emission maximum,in Cc1ccccc1,723 nm
CCCCCCC(CCCCCC)N1C(=O)c2cccc3c(-c4ccc(-c5ccc(OC)cc5)cc4)ccc(c23)C1=O,emission maximum,in CCCCCC,426.8 nm
same,emission maximum,in CCCCCCCCCCCCCC,436.7 nm
same,emission maximum,in CCCCCCCCCCCO,518.2 nm
same,emission maximum,in CCCCO,556.6 nm
same,emission maximum,in CN(C)C=O,583.4 nm
same,emission maximum,in Cc1ccccc1,454.6 nm
same,emission maximum,in ClC(Cl)Cl,492.2 nm
COc1ccc2c(c1)c(C#N)cc1c(OC)c(OC)c3cc(C#N)c4cc(OC)ccc4c3c12,emission maximum,in ClC(Cl)Cl,496 nm
N#Cc1c(C#N)c(-n2c3ccccc3c3ccccc32)c(-n2c3ccccc3c3ccccc32)c(-n2c3ccccc3c3ccccc32)c1-n1c2ccccc2c2ccccc21,emission maximum,in Cc1ccccc1,525 nm
CC(=O)OC[C@H]1O[C@@H](OCC#Cc2ccc(C3=C4C(C)=CC(/C=C/c5ccc([N+](C)(C)C)cc5)=[N+]4[B-](F)(F)n4c(/C=C/c5ccc([N+](C)(C)C)cc5)cc(C)c43)cc2)[C@H](OC(C)=O)C(OC(C)=O)[C@@H]1OC(C)=O (stereo partly specified),emission maximum,in CC#N,629 nm
CC1=C(C#Cc2ccc(N(c3ccccc3)c3ccccc3)cc2)C(C)=[N+]2C1=C(c1ccccc1)c1c(C)c(C#Cc3ccc(N(c4ccccc4)c4ccccc4)cc3)c(C)n1[B-]2(F)F,emission maximum,in C1CCOC1,659 nm
c1ccc(-c2ccc(-c3cc(-c4ccccn4)nc(-c4ccccn4)c3)cc2)cc1,emission maximum,in ClCCl,360 nm
COc1c2ccccc2c(OC)c2c1c1cc(C)ccc1n2C,emission maximum,in C1CCCCC1,421 nm
same,emission maximum,in CC#N,431 nm
same,emission maximum,in CO,426 nm
same,emission maximum,in ClCCl,428 nm
COCCOCCOCCOCC(COCCOCCOCCOC)Oc1cc(/C=C/c2ccc(/C=C(\C#N)c3ccccc3)cc2)c(OC(COCCOCCOCCOC)COCCOCCOCCOC)cc1/C=C/c1ccc(/C=C(\C#N)c2ccccc2)cc1,emission maximum,in ClCCl,539 nm
Cc1ccc(C)cc1,emission maximum,in C1CCCCC1,292.06 nm
CN1CCN(c2cccc(/C=C/c3ncc(-c4ccc(OCc5ccccc5)c(OCc5ccccc5)c4)o3)c2)CC1,emission maximum,in ClCCl,465 nm
CCCCCCOc1ccc2oc3c(c2c1)=CC1=C(c2ccccc2C)c2cc4c5cc(OCCCCCC)ccc5oc4n2[B-](F)(F)[N+]=31,emission maximum,in C1CCCCC1,603 nm
same,emission maximum,in CCOC(C)=O,602.5 nm
same,emission maximum,in CO,603 nm
COc1ccc(-c2ccc3c(c2)C=Cc2cc(-c4ccc(OC)cc4)ccc2[Si]3(C)C)cc1,emission maximum,in ClCCl,391 nm
COc1ccc(-c2cc3c(ccc(=O)n3C)s2)cc1,emission maximum,in CC#N,424 nm
same,emission maximum,in ClCCl,426 nm
BrCCCCCCCCCCCCOc1cc2ccc3cccc4ccc(c1)c2c34,emission maximum,in Cc1ccccc1,384 nm
CCCCCCCCCCOc1cc(OCCCCCCCCCC)cc(C2=C3C(/C=C/c4ccc(OC)cc4)=C(C#Cc4ccc(C(C)(C)C)cc4)C(/C=C/c4ccc(OC)cc4)=[N+]3[B-](F)(F)n3c(/C=C/c4ccc(OC)cc4)c(C#Cc4ccc(C(C)(C)C)cc4)c(/C=C/c4ccc(OC)cc4)c32)c1,emission maximum,in ClC(Cl)Cl,756 nm
COc1ccc(C(=O)/C=C2\C(=O)Nc3ccccc32)cc1,emission maximum,in C1COCCO1,373 nm
same,emission maximum,in CC#N,372 nm
same,emission maximum,in CC(C)(C)O,381 nm
same,emission maximum,in CC(C)O,378 nm
same,emission maximum,in CCCCO,378 nm
same,emission maximum,in CCOC(C)=O,375 nm
same,emission maximum,in CN(C)C=O,375 nm
same,emission maximum,in CO,380 nm
same,emission maximum,in ClCCl,411 nm
same,emission maximum,in O,407 nm
CN1c2cc3nc4cc(Cl)c(Cl)cc4nc3cc2N(C)C1(C)C,emission maximum,in CCO,497 nm
Cc1cc(C#Cc2ccccc2)c2ccc3c(C#Cc4ccccc4)cc(C#Cc4ccccc4)c4ccc1c2c43,emission maximum,in CS(C)=O,461 nm
same,emission maximum,in ClC(Cl)(Cl)Cl,460 nm
F[B-]1(F)n2c(c3cccc4cccc2c43)=Nc2sc3ccccc3[n+]21,emission maximum,in C1CCOC1,501 nm
same,emission maximum,in CC#N,500 nm
same,emission maximum,in CCCCCC,493 nm
same,emission maximum,in Cc1ccccc1,504 nm
same,emission maximum,in ClCCl,529 nm
[NH3+]c1cc([NH3+])cc(-c2[nH+]c3ccccc3s2)c1,emission maximum,in O,460 nm
COC(=O)c1noc(-c2ccccc2)c1Cl,emission maximum,in C1CCCCC1,344 nm
COc1ccc(C2=C3C(/C=C/c4cc(OC)c(OC)c(OC)c4)=C(C=O)C(/C=C/c4cc(OC)c(OC)c(OC)c4)=[N+]3[B-](F)(F)n3c(/C=C/c4cc(OC)c(OC)c(OC)c4)c(C=O)c(C=Cc4cc(OC)c(OC)c(OC)c4)c32)cc1,emission maximum,in ClCCl,722 nm
CCCC1=Cc2nc1ccc1[nH]c(cc1CCC)c1nc(c(OCc3ccc(C(=O)O)cc3)cc3[nH]c2cc3CCC)C(CCC)=C1,emission maximum,in Cc1ccccc1,685 nm
CN(C)c1ccc(C(=O)Nc2ccc([N+](=O)[O-])cc2)cc1,emission maximum,in C1CCCCC1,360 nm
same,emission maximum,in C1CCOC1,400 nm
same,emission maximum,in CC#N,430 nm
same,emission maximum,in CCOCC,536 nm
N#Cc1cnc(-c2c3ccccc3c(-c3ccccc3)c3ccccc23)nc1,emission maximum,in CCO,520 nm
same,emission maximum,in ClCCl,504 nm
CCCCCCCCCCCCOc1cc(C(=O)Nc2ccc(-c3ccc4c(c3)C(=O)c3cc(-c5ccc(NC(=O)c6cc(OCCCCCCCCCCCC)c(OCCCCCCCCCCCC)c(OCCCCCCCCCCCC)c6)cc5)ccc3-4)cc2)cc(OCCCCCCCCCCCC)c1OCCCCCCCCCCCC,emission maximum,in C1CCOC1,542 nm
COc1cc(OC)c2cc(-c3ccc(-c4cc5c(OC)cc(OC)cc5oc4=O)cc3)c(=O)oc2c1,emission maximum,in ClC(Cl)Cl,446 nm
N#C/C(=C\c1ccccc1)c1nc2ccccc2s1,emission maximum,in C1CCCCC1,430 nm
CCCCC(CC)CN1C(=O)C2=C(c3ccc(-c4ccc(C5=C6C(C)=CC(C)=[N+]6[B-](F)(F)n6c(C)cc(C)c65)cc4)s3)N(CC(CC)CCCC)C(=O)C2=C1c1cccs1 (stereo unspecified),emission maximum,in Cc1ccccc1,623 nm
CC(C)(C)c1ccc(N(c2ccc(S(=O)(=O)c3ccc(S(=O)(=O)c4ccc(N(c5ccc(C(C)(C)C)cc5)c5ccccc5C(C)(C)C)cc4)cc3)cc2)c2ccccc2C(C)(C)C)cc1,emission maximum,in Cc1ccccc1,454 nm
same,emission maximum,in c1cc(-n2c3ccccc3c3ccccc32)nc(-n2c3ccccc3c3ccccc32)c1,463.53 nm
CC(C)(C)c1ccc2oc3nc4oc5ccc(-n6c7ccccc7c(=O)c7ccccc76)cc5c4cc3c2c1,emission maximum,in ClC(Cl)Cl,409 nm
CC(C)[Si](C#Cc1c2cc3ccccc3cc2c(C#C[Si](C(C)C)(C(C)C)C(C)C)c2nc3c(nc12)C1c2ccccc2C3c2ccccc21)(C(C)C)C(C)C,emission maximum,in CCCCCC,548 nm
CB1C=Cc2ccc3ccccc3c2N1c1ccccc1,emission maximum,in C1CCCCC1,387 nm
CC(C)(C)c1ccc2c(c1)c1cc(C(C)(C)C)ccc1n2-c1ccc2oc3nc4oc5ccc(C(F)(F)F)cc5c4cc3c2c1,emission maximum,in C1CCCCC1,396 nm
same,emission maximum,in C1CCOC1,455 nm
same,emission maximum,in CC#N,513 nm
same,emission maximum,in CS(C)=O,517 nm
same,emission maximum,in Cc1ccccc1,422 nm
same,emission maximum,in ClC(Cl)Cl,364 nm
CC(C)(C)c1ccc2oc3nc4oc5ccc(N6c7ccccc7Oc7ccccc76)cc5c4cc3c2c1,emission maximum,in ClC(Cl)Cl,491 nm
CCCCCCc1ccc(-n2c3[n+](c4c5ccccc5c5ccccc5c42)[B-](C)(C)c2cc(N(c4ccccc4)c4ccccc4)ccc2-3)cc1,emission maximum,in C1CCOC1,435 nm
same,emission maximum,in CC#N,446 nm
same,emission maximum,in Cc1ccccc1,428 nm
same,emission maximum,in ClCCl,437 nm
CCCCCc1c(C)c2c3ccccc3[nH]c2c2ccccc12,emission maximum,in ClCCl,369 nm
CCCCCCCCCCCCCCCCOC(=O)c1ccc(N(c2ccccc2)c2ccccc2)cc1,emission maximum,in C1CCCCC1,380 nm
same,emission maximum,in C1CCOC1,428 nm
same,emission maximum,in CC#N,480 nm
same,emission maximum,in CCOC(C)=O,428 nm
same,emission maximum,in ClCCCl,450 nm
same,emission maximum,in c1ccccc1,412 nm
O=c1c2cc(-n3c4ccccc4c4ccccc43)ccc2sc2ccc(-n3c4ccccc4c4ccccc43)cc12,emission maximum,in C1CCOC1,460 nm
same,emission maximum,in CCCCCC,438 nm
same,emission maximum,in Cc1ccccc1,455.5 nm
same,emission maximum,in ClC(Cl)Cl,493.5 nm
same,emission maximum,in ClCCl,495 nm
COc1ccc(-c2nc(-c3cccc(OC)c3)[nH]c2-c2ccc(OC)cc2)cc1,emission maximum,in CO,399 nm
CCCCCCCCn1c2cc(/C=C/c3ccc(N(c4ccccc4)c4ccccc4)cc3)ccc2c2cc3c(cc21)c1ccc(/C=C/c2ccc(N(c4ccccc4)c4ccccc4)cc2)cc1n3CCCCCCCC,emission maximum,in Cc1ccccc1,473 nm
CCCCc1cc2cccc3cc(CCCC)c4cc(-c5cc6[b-]7c(c5)c(CCCC)cc5cccc(cc6CCCC)[n+]75)cc1[b-]4[n+]23,emission maximum,in C1CCCCC1,550 nm
F[B-]1(F)n2c(/C=C/c3ccc(C(=C(c4ccccc4)c4ccccc4)c4ccccc4)cc3)ccc2C(c2ccccc2)=C2C=CC(/C=C/c3ccc(C(=C(c4ccccc4)c4ccccc4)c4ccccc4)cc3)=[N+]21,emission maximum,in C1CCOC1,690 nm
O=Cc1ccc(C#CC(C#Cc2ccc(C=O)s2)=Cc2ccc(C=C(C#Cc3ccc(C=O)s3)C#Cc3ccc(C=O)s3)s2)s1,emission maximum,in ClC(Cl)Cl,595 nm
COc1ccc(-c2c3nc(cc4ccc([nH]4)c(-c4ccc(OC)c(OCCCC(=O)O)c4)c4nc(cc5ccc2[nH]5)C=C4)C=C3)cc1OCCCC(=O)O,emission maximum,in CS(C)=O,639 nm
COC(=O)C1=C(C(=O)OC)C2=C[C@H]3c4ccccc4[C@]2(S1)c1ccccc13,emission maximum,in C1CCOC1,477 nm
same,emission maximum,in CC#N,489 nm
same,emission maximum,in CCCCCC,465 nm
same,emission maximum,in CCOCC,473 nm
same,emission maximum,in CO,500 nm
same,emission maximum,in ClCCl,488 nm
same,emission maximum,in c1ccccc1,477 nm
N#Cc1cc2ccc(C(F)(F)F)cc2c2c1ccc1ccccc12,emission maximum,in ClC(Cl)Cl,408 nm
Cc1ccc(N(CC(=O)[O-])CC(=O)[O-])c(OCCOc2cc3cc(-c4ncc(C(=O)[O-])o4)oc3cc2N(CC(=O)[O-])CC(=O)[O-])c1,emission maximum,in O,500 nm
CCCC1=Cc2nc1ccc1[nH]c(cc1CCC)c1nc(ccc3[nH]c2cc3CCC)C(CCC)=C1,emission maximum,in Cc1ccccc1,641 nm
CCN(CC)c1ccc(/C=N/C(C#N)=C(C#N)/N=C/c2ccc(N(CC)CC)cc2O)c(O)c1,emission maximum,in CC#N,609 nm
same,emission maximum,in CN(C)C=O,618 nm
same,emission maximum,in ClCCl,612 nm

# Source: the Deep4Chem optical property database
